We go through five compounds from patent US6034246A, “2-arylbenzazole compounds” (Cancer Research Campaign Technology Limited, priority 1995, dated 2000).

Experiment [1] relates to MOR/CPR. Briefly: in vitro inhibition of growth of human lung cancer cell line MOR/CPR (Table 1). The settings on record: Homo sapiens; MOR/CPR (cisplatin resistant line). Format: cell-based. An excerpt:
(§1) Tables 1 to 4 at the end of the present description show in vitro test results obtained in various sets of experiments for the cytotoxic activity of several of the benzazole compounds concerned, including also for reference results for the compound CJM 126 and comparative results for compound DF129, when tested against a range of tumor cell lines which includes ovarian, lung and certain colon and renal cancer cells from the National Cancer Institute (USA) collection. As usual the results are expressed in terms of IS50 values (concentration or dosage required to reduce cell growth or proliferation by 50%) calculated from dose-effect curves plotted for cultures of the cells in question.
(§2) In carrying out the in vitro studies, the cytotoxicity assays may be carried out by a method corresponding substantially to the following example:
(§3) Cells were maintained in a continuous logarithmic culture in Dublecco's medium supplemented with 10% fetal calf serum and penicillin (100 IU/ml) and streptomycin ([…]). The cells were mildly trypsinized for passage and for use in assays. On day zero, 100 μl of trypsinized tumor cells (1×10^4 /ml) were plated in the wells of 96-well flat-bottom microtiter plates. The plates were incubated for 2 days at 37° C. and 5% CO2 in air to allow the cells to adhere and resume exponential growth prior to the addition of drugs.
(§4) On day two 50 μl of the highest drug concentration was added to the wells of column 12 and from there serially diluted 3-fold to column 1 by serial transfer of 50 μl using an 8-channel micropipette. The final volume of column 1 was adjusted to 100 μl. No additions were made to the wells of rows A and B, which served as controls. The plates were further incubated for 5 days at 37° C. and 5% CO2 in air. Each compound was tested in duplicate.
(§5) On day 7 the test was terminated by the addition of 100 μl saline containing 0.002% w/v propidium iodide (Sigma), 0.3% drawing ink (Staedtler "Marsmatic 745"--Trade Mark) and 0.5% Triton X-100. The plates were kept at 4° C. overnight before reading on an inverted microscope equipped with an automated scanning stage. Fluorescence intensity was measured in arbitrary units by a photomultiplier. An HP-87 computer controlled the movement of the stage and also collected and processed the data from the multiplier.
(§6) For each compound tested a dose-response curve was obtained and the IC50 value (the drug concentration at 50% inhibition of cell growth) was calculated.

The subject of experiment [2] is H69/P. Kind of experiment: in vitro inhibition of growth of human lung cancer cell line H69/P (Table 1). The format is cell-based.
Excerpt: as §1, §2, §3, §4, §5, §6

Experiment [3] relates to LX4. Kind of experiment: in vitro inhibition of growth of human lung cancer cell line LX4 (Table 1). Format: cell-based.
Excerpt: as §1, §2, §3, §4, §5, §6

The subject of experiment [4] is L23/R. Briefly: in vitro inhibition of growth of human lung cancer cell line L23/R (Table 1). Format: cell-based.
Excerpt: as §1, §2, §3, §4, §5, §6

Experiment [5] relates to CH1-cisR. Briefly: in vitro activity against human ovarian cell line CH1-cisR (Table 2). The format is cell-based. Particulars: Homo sapiens, CH1cisR.
Excerpt: (§7) As usual the results are expressed in terms of IS50 values (concentration or dosage required to reduce cell growth or proliferation by 50%) calculated from dose-effect curves plotted for cultures of the cells in question.
as §2, §3, §4
(§8) The plates were kept at 4° C. overnight before reading on an inverted microscope equipped with an automated scanning stage. Fluorescence intensity was measured in arbitrary units by a photomultiplier. An HP-87 computer controlled the movement of the stage and also collected and processed the data from the multiplier.

Experiment [6] has as its system A2780. Kind of experiment: in vitro activity against human ovarian cell line A2780 (Table 2). The format is cell-based. The settings on record: Homo sapiens; A2780 (parental line).
Excerpt: as §7, §2, §3, §4, §8

Experiment [7] deals with CH1. Briefly: in vitro activity against human ovarian cell line CH1 (Table 2). Format: cell-based. The settings on record: Homo sapiens.
Excerpt: as §7, §2, §3, §4, §8

For experiment [8], the system named is A2780-cisR. Briefly: in vitro activity against human ovarian cell line A2780-cisR (Table 2). The format is cell-based. The settings on record: Homo sapiens, A2780cisR; A2780-cisR (platinum-resistant).
Excerpt: as §7, §2, §3, §4, §8

Experiment [9] concerns MDA 468. Kind of experiment: in vitro inhibitory activity against human breast tumour cell line MDA 468 (Table 4). Particulars: initial seeding density 2.5 × 10^2 cells/well. The format is cell-based.
Excerpt: as §1, §2, §3, §4, §5, §6
(§9) *Initial seeding density 2.5 × 10^2 cells/well

Experiment [10] has as its system MOR/R. Briefly: in vitro inhibition of growth of human lung cancer cell line MOR/R (Table 1). The settings on record: MOR/R (multidrug resistant line). The format is cell-based.
Excerpt: as §1, §2, §3, §4, §5, §6

Experiment [11] deals with L88. Kind of experiment: in vitro inhibition of growth of human lung cancer cell line L88 (Table 1). The format is cell-based.
Excerpt: as §1, §2, §3
(§10) On day two 50 μl of the highest drug concentration was added to the wells of column 12 and from there serially diluted 3-fold to column 1 by serial transfer of 50 μl using an 8-channel micropipette. The final volume of column 1 was adjusted to 100 μl. No additions were made to the wells of rows A and B, which served as controls. […]
(§11) On day 7 the test was terminated by the addition of 100 μl saline containing 0.002% w/v propidium iodide (Sigma), 0.3% drawing ink (Staedtler "Marsmatic 745"--Trade Mark) and 0.5% Triton X-100. The plates were kept at 4° C. overnight before reading on an inverted microscope equipped with an automated scanning stage. Fluorescence intensity was measured in arbitrary units by a photomultiplier. […]

In experiment [12] the test system is MCF-7wt. Kind of experiment: in vitro inhibitory activity against human breast tumour cell line MCF-7wt (Table 4). Format: cell-based. Particulars: initial seeding density 2.5 × 10^2 cells/well.
Excerpt: as §1, §2, §3, §4, §5, §6, §9

Experiment [13] has as its system L23/P. Kind of experiment: in vitro inhibition of growth of human lung cancer cell line L23/P (Table 1). The format is cell-based.
Excerpt: as §1, §2, §3, §4, §5, §6

Experiment [14] concerns MOR/P. Kind of experiment: in vitro inhibition of growth of human lung cancer cell line MOR/P (Table 1). The format is cell-based. Particulars: MOR/P (parental line).
Excerpt: as §1, §2, §3, §4, §5, §6

For experiment [15], the system named is human breast cancer cell lines. Kind of experiment: in vitro inhibition of human breast cancer cell lines. Format: cell-based. The settings on record: words, Table 4.
Excerpt: as §1, §2, §3, §4, §5, §6

The test system of experiment [16] is ovarian cancer cell lines. Briefly: in vitro inhibition of ovarian cancer cell lines. Format: cell-based, human. The settings on record: words, Table 2.
Excerpt: as §1
In carrying out the in vitro studies, the cytotoxicity assays may be carried out by a method corresponding substantially to the following example: […]
as §11

Experiment [17] relates to MCF-7B. Kind of experiment: in vitro inhibitory activity against human breast tumour cell line MCF-7B (Table 4). The format is cell-based. Particulars: initial seeding density 2.5 × 10^2 cells/well.
Excerpt: as §1, §2, §3, §10, §11

The subject of experiment [18] is ER-tumors MT-1 and MT-3. The settings on record: words, background statement; cited from earlier work.

In the case of `O=C(CCl)Nc1ccc(-c2nc3ccccc3s2)cc1` [DF180, 2-(4'-Chloroacetamidophenyl)benzothiazole], the IC50 in experiment [1] came to 10000 nM; in [2], 3000 nM; in experiment [3] it was 3000 nM; in [4], 1500 nM; in [5], 2600 nM; in [6], 1250 nM. The IC50 in experiment [7] stood at 1600 nM; in [8], 1600 nM; in [9], 40 nM; in [10] it was 6000 nM; in experiment [11], 6000 nM; in experiment [12], 4 nM. Further, the IC50 was found to be 1500 nM in experiment [13], 6000 nM in [14] and 500 nM in [17]. The “inhibitory activity in respect of breast cancer cell lines” value in experiment [15] is listed as “useful degree of inhibitory activity”. Further, the “activity against two cisplatin resistant cell lines compared with the parental line” value in [16] is reported as “substantially equiactive”. Moreover, in experiment [16], the “activity in respect of the ovarian cancer cell lines” value is “most active by far”.
For the compound `Nc1ccc(-c2nc3ccccc3s2)cc1Br` [DF209, 2-(4'-amino-3'-bromophenyl)benzothiazole], the 50% inhibitory concentration (IC50) in experiment [9] was < 1 nM; in experiment [12] it was < 1 nM; in [17], 1 nM. Moreover, in [15], the “potency against breast cancer cells relative to CJM 126” value is given as “more potent than even the compound CJM 126”.
Turning to `CCCCCCCCCCCCCCCCOP(=O)([O-])OCC[N+](C)(C)C` [hexadecylphosphocoline], in [18], the “responsiveness of MT-1 and MT-3 tumors to drug” value (shortened to “responsiveness”) is recorded as “exquisitively sensitive”.
Consider `CN(Cc1cnc2nc(N)nc(N)c2n1)c1ccc(C(=O)N[C@@H](CCC(=O)O)C(=O)O)cc1` [methotrexate], for which the “responsiveness” value in experiment [18] was “completely unresponsive”.
Turning to `CC[C@]1(O)C[C@H]2CN(CCc3c([nH]c4ccccc34)[C@@](C(=O)OC)(c3cc4c(cc3OC)N(C=O)[C@H]3[C@@](O)(C(=O)OC)[C@H](OC(C)=O)[C@]5(CC)C=CCN6CC[C@]43[C@@H]65)C2)C1` [vincristine], the “responsiveness” value in experiment [18] was “completely unresponsive”.
